Measurements taken from PubChem BioAssay AID330 (DTP/NCI, 2004).
Values joined by “and” are separate entries in the source; they are usually repeats but may differ in a detail not shown here. Identical values can stand only once. Inconclusive results and toxic doses are left out. How the source made its calls: active means survival T/C of 150% or more; inactive means T/C below 125% in these data.

Tested on: P388 leukemia ip, CD2F1 mice, survival T/C
Assay: NCI In Vivo Anticancer Drug Screen. Data for tumor model P388 Leukemia (intraperitoneal) in CD2F1 (CDF1) mice
Settings: endpoint: median survival time, higher = longer survival
Procedure, shortened: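 Mice carrying the transplanted tumor received test compound or vehicle. Survival was recorded in each group, and the value is the treated-group measurement divided by that of the vehicle-treated control group.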

[1] = dose: 12.5 mg/kg/injection, schedule: Q01DX009 (ip), vehicle: distilled water + Tween-80
[2] = dose: 25.0 mg/kg/injection, schedule: Q01DX009 (ip), vehicle: distilled water + Tween-80
[3] = dose: 50.0 mg/kg/injection, schedule: Q01DX009 (ip), vehicle: distilled water + Tween-80
[4] = dose: 100.0 mg/kg/injection, schedule: Q01DX009 (ip), vehicle: distilled water + Tween-80
[5] = dose: 50.0 mg/kg/injection, schedule: Q01DX005 (ip), vehicle: Klucel (hydroxypropylcellulose) (HPC)
[6] = dose: 100.0 mg/kg/injection, schedule: Q01DX005 (ip), vehicle: Klucel (hydroxypropylcellulose) (HPC)
[7] = dose: 60.0 mg/kg/injection, schedule: Q01DX005 (ip), vehicle: saline with Tween-80
[8] = dose: 120.0 mg/kg/injection, schedule: Q01DX005 (ip), vehicle: saline with Tween-80
[9] = dose: 240.0 mg/kg/injection, schedule: Q01DX005 (ip), vehicle: saline with Tween-80
[10] = dose: 100.0 mg/kg/injection, schedule: Q01DX001 (ip), vehicle: saline with Tween-80
[11] = dose: 200.0 mg/kg/injection, schedule: Q01DX001 (ip), vehicle: saline with Tween-80
[12] = dose: 50.0 mg/kg/injection, schedule: Q01DX009 (ip), vehicle: saline with Tween-80
[13] = dose: 100.0 mg/kg/injection, schedule: Q01DX009 (ip), vehicle: saline with Tween-80
[14] = dose: 50.0 mg/kg/injection, schedule: Q01DX005 (ip), vehicle: saline with Tween-80
[15] = dose: 25.0 mg/kg/injection, schedule: Q01DX005 (ip), vehicle: Klucel (hydroxypropylcellulose) (HPC)

Measured: T/C

C[As](C)SCC1OC(n2ccc(=O)[nH]c2=O)C2OC(C)(C)OC12 (configuration not stated)
inactive: [1] 103 % of control | [2] 110 % of control | [3] 116 % of control | [4] 113 % of control

O=C(c1ccccc1)N1OC12CCCCC2
inactive: [5] 102 % of control | [6] 99 % of control

O=[N+]([O-])c1ccc(/C=C/C(CCN2CCOCC2)=N/O)cc1
inactive: [7] 104 % of control | [8] 99 % of control | [9] 103 % of control

Clc1ccc(-c2nnc3ncccn23)cc1
inactive: [10] 96 % of control | [11] 105 % of control

CC1(C)CN(C(=S)N2CC(C)(C)SC2=O)C(=O)S1
inactive: [7] 108 % of control | [8] 98 % of control | [9] 104 % of control

CC1C2=C(C(=O)N1Cc1ccccc1)C(C1OC(COC(=O)c3ccccc3)C(OC(=O)c3ccccc3)C1OC(=O)c1ccccc1)C(=O)N(C)C2=O (configuration not stated)
inactive: dose: 39.0 mg/kg/injection, schedule: Q01DX009 (ip), vehicle: Klucel (hydroxypropylcellulose) (HPC) 97 % of control | dose: 78.0 mg/kg/injection, schedule: Q01DX009 (ip), vehicle: Klucel (hydroxypropylcellulose) (HPC) 99 % of control | dose: 156.0 mg/kg/injection, schedule: Q01DX009 (ip), vehicle: Klucel (hydroxypropylcellulose) (HPC) 95 % of control

COc1c2ccoc2cc2oc(COC3OC(CO)C(O)C(O)C3O)cc(=O)c12 (configuration not stated)
inactive: dose: 12.5 mg/kg/injection, schedule: Q01DX005 (ip), vehicle: saline 100 % of control | dose: 25.0 mg/kg/injection, schedule: Q01DX005 (ip), vehicle: saline 108 % of control | dose: 50.0 mg/kg/injection, schedule: Q01DX005 (ip), vehicle: saline 106 % of control and 108 % of control

CC(=O)OC1COC(Nc2cc(=O)n(C)c(=O)[nH]2)C(OC(C)=O)C1OC(C)=O (configuration not stated)
inactive: [10] 101 % of control | [11] 100 % of control | dose: 400.0 mg/kg/injection, schedule: Q01DX001 (ip), vehicle: saline with Tween-80 95 % of control

CC(=O)OC1C2C3C2C2C1C32 (configuration not stated)
inactive: dose: 100.0 mg/kg/injection, schedule: Q04DX002 (ip), vehicle: other 113 % of control | dose: 200.0 mg/kg/injection, schedule: Q04DX002 (ip), vehicle: other 106 % of control | dose: 400.0 mg/kg/injection, schedule: Q04DX002 (ip), vehicle: other 103 % of control

O=C1Nc2ccccc2C1NC(=S)Nc1ccc(Br)cc1 (configuration not stated)
inactive: [7] 91 % of control | [8] 94 % of control | [9] 88 % of control

Cc1ccc(C(c2ccccc2)c2ccc(C)cc2O)c(O)c1
inactive: [12] 118 % of control | [13] 105 % of control

CCn1c(=N)sc2nc3ccccc3n2c1=O
inactive: dose: 60.0 mg/kg/injection, schedule: Q01DX005 (ip), vehicle: Klucel (hydroxypropylcellulose) (HPC) 103 % of control | dose: 120.0 mg/kg/injection, schedule: Q01DX005 (ip), vehicle: Klucel (hydroxypropylcellulose) (HPC) 103 % of control

O=C(Nc1nc2ccc(Cl)cc2[nH]1)c1ccccc1O
inactive: [14] 94 % of control | dose: 100.0 mg/kg/injection, schedule: Q01DX005 (ip), vehicle: saline with Tween-80 98 % of control | dose: 200.0 mg/kg/injection, schedule: Q01DX005 (ip), vehicle: saline with Tween-80 101 % of control

CN=C=O
inactive: dose: 6.25 mg/kg/injection, schedule: Q01DX005 (ip), vehicle: water 99 % of control | dose: 12.5 mg/kg/injection, schedule: Q01DX005 (ip), vehicle: water 92 % of control | dose: 25.0 mg/kg/injection, schedule: Q01DX005 (ip), vehicle: water 98 % of control | dose: 50.0 mg/kg/injection, schedule: Q01DX005 (ip), vehicle: water 101 % of control | dose: 100.0 mg/kg/injection, schedule: Q01DX005 (ip), vehicle: water 108 % of control | dose: 200.0 mg/kg/injection, schedule: Q01DX005 (ip), vehicle: water 99 % of control

COc1ccc(-c2[nH]c(=O)c(C#N)c(C(=O)NN)c2-c2ccc(OC)cc2)cc1
inactive: [7] 112 % of control | [8] 100 % of control | [9] 89 % of control

CN(C)c1ccc(/[N+]([O-])=N/N2C(=O)c3ccccc3C2=O)cc1
inactive: [15] 105 % of control | [5] 97 % of control | [6] 101 % of control | dose: 200.0 mg/kg/injection, schedule: Q01DX005 (ip), vehicle: Klucel (hydroxypropylcellulose) (HPC) 110 % of control

CC(C)(C)[Si](C)(C)ONC(=O)c1ccccc1
inactive: dose: 6.25 mg/kg/injection, schedule: Q01DX009 (ip), vehicle: distilled water + Tween-80 100 % of control | [1] 98 % of control | [2] 107 % of control | [3] 91 % of control | [4] 100 % of control | dose: 200.0 mg/kg/injection, schedule: Q01DX009 (ip), vehicle: distilled water + Tween-80 98 % of control | dose: 400.0 mg/kg/injection, schedule: Q01DX009 (ip), vehicle: distilled water + Tween-80 100 % of control

CCOC(=O)c1c(NC(=S)NC)sc(C)c1C
inactive: [12] 106 % of control | [13] 89 % of control | dose: 200.0 mg/kg/injection, schedule: Q01DX009 (ip), vehicle: saline with Tween-80 106 % of control

NC(=O)c1ccc2c(=O)c(C(=O)O)c[nH]c2c1
inactive: dose: 6.25 mg/kg/injection, schedule: Q01DX009 (ip), vehicle: saline with Tween-80 92 % of control | dose: 12.5 mg/kg/injection, schedule: Q01DX009 (ip), vehicle: saline with Tween-80 95 % of control | dose: 25.0 mg/kg/injection, schedule: Q01DX009 (ip), vehicle: saline with Tween-80 94 % of control

CN(C)C1CC/C=C/CC/C=C/CC[C@H]1O (mixture of isomers)
inactive: dose: 12.5 mg/kg/injection, schedule: Q01DX005 (ip), vehicle: saline with Tween-80 100 % of control | dose: 25.0 mg/kg/injection, schedule: Q01DX005 (ip), vehicle: saline with Tween-80 98 % of control | [14] 99 % of control and 100 % of control

CN1C(=O)N(C)C(=O)C(Cl)(Cl)C1=O
inactive: dose: 12.5 mg/kg/injection, schedule: Q01DX005 (ip), vehicle: Klucel (hydroxypropylcellulose) (HPC) 101 % of control | [15] 97 % of control
